Measurements: ChEMBL document CHEMBL1133344, “SAR studies of 2-o-substituted-benzoyl- and 2-alkanoyl-cyclohexane-1,3-diones as inhibitors of 4-hydroxyphenylpyruvate dioxygenase” (Bioorg Med Chem Lett, 2000)

Molecular target: T1, 4-hydroxyphenylpyruvate dioxygenase (Sus scrofa, UniProt Q02110)
Assay: In vitro inhibition of 4-hydroxyphenylpyruvate dioxygenase obtained from purified pig liver by enol-borate method

T1 sequence (Q02110 whole entry): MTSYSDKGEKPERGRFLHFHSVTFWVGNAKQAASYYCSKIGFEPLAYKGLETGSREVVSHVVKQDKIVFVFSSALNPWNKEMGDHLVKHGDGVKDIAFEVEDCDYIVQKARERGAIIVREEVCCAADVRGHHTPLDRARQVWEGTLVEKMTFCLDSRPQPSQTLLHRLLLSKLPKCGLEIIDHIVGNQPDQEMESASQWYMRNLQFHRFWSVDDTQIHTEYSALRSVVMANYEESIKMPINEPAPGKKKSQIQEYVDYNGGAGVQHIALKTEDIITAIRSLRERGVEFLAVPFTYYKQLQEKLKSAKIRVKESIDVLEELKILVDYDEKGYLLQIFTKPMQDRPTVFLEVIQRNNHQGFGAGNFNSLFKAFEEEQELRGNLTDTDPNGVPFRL

Q: `O=C1CCCC(=O)C1C(=O)c1ccccc1` was tested. Which IC50 did it give?
A: 11.2 µM

Molecular target: T1, 4-hydroxyphenylpyruvate dioxygenase
Assay: Inhibition of 4-hydroxyphenylpyruvate dioxygenase of purified pig liver by enol-borate method

Q: With `O=C1CCCC(=O)C1C(=O)c1ccccc1I` as the molecule, how does the IC50 read?
A: 0.76 µM

Q: With `CCC(=O)C1C(=O)CCCC1=O` as the molecule, how does the IC50 read?
A: 17.8 µM

Q: `O=C1CCCC(=O)C1C(=O)c1ccccc1C(F)(F)F` was tested. Which IC50 did it give?
A: 0.25 µM

Q: `O=C1CCCC(=O)C1C(=O)c1ccccc1Cl` was tested. Which IC50 did it give?
A: 0.5 µM

Q: Which IC50 does the source give for `COc1ccccc1C(=O)C1C(=O)CCCC1=O` here?
A: 11.7 µM

Q: For `CC(C)C(=O)C1C(=O)CCCC1=O`, which IC50 is on record?
A: 93.3 µM

Q: Which IC50 does the source give for `CC(=O)C1C(=O)CCCC1=O` here?
A: 11.2 µM

Q: `O=C1CCCC(=O)C1C(=O)C1CCCCC1` was tested. Which IC50 did it give?
A: 365 µM

Q: How did the IC50 turn out when `O=C1CCCC(=O)C1C(=O)c1ccccc1Br` was run?
A: 0.56 µM

Q: `O=C1CCCC(=O)C1C(=O)c1ccccc1[N+](=O)[O-]` was tested. Which IC50 did it give?
A: 0.16 µM

Q: With `Cc1ccccc1C(=O)C1C(=O)CCCC1=O` as the molecule, how does the IC50 read?
A: 3.75 µM

Q: For `O=C1CCCC(=O)C1C(=O)C1CC1`, which IC50 is on record?
A: 6 µM

Q: `O=C1CCCC(=O)C1C(=O)c1ccc(C(F)(F)F)cc1[N+](=O)[O-]` [NITISINONE] was tested. Which IC50 did it give?
A: 0.04 µM
